According to patent US12590071B2, “Hydrazone derivative in which terminal amine group is substituted with aryl group or heteroaryl group, and use thereof” (KOREA INSTITUTE OF SCIENCE AND TECHNOLOGY, priority 2018, dated 2026):

Experiments:
[1] = biological target: T1, CYP2C9 (Homo sapiens, UniProt P11712); assay: Inhibition of CYP coenzyme activity in human liver microsomes; assay type: in vitro ADME; details: compound 10 PM (so in the source); human liver microsomes 0.25 mg/mL; substrate diclofenac; 15 minutes
T1 construct: human liver microsomes (0.25 mg/mL); from tissue; host or cells: human liver microsomes
Experimental: (§1) 5 The inhibition effects of CYP coenzyme activity by the compounds prepared according to Examples 1 to 171 was confirmed. Specifically, human liver microsomes (0.25 mg/mL), a 0.1 M phosphate buffer solution (pH 7.4), substrate drug cocktails (phenacetin 50 μM, diclofenac 10 μM, S-mephenytoin 100 μM, dextromethorphan 5 μM, and midazolam 2.5 μM) of five kinds of drug metabolism enzymes, and the compounds with a concentration of 0 μM or 10 PM were added, respectively. Then the mixture was cultured in advance at 37° C. for 5 minutes, and then further cultured at 37° C. for 15 minutes together with the addition of an NADPH generation system solution. Thereafter, a reaction was terminated by adding an acetonitrile solution containing an internal standard material (terfenadine), centrifugal separation (14,000 rpm, 4° C.) was performed for 5 minutes, and then a supernatant was injected into an LC-MS/MS system. Metabolites of the substrate drugs were simultaneously analyzed to evaluate the drug metabolism inhibition ability.
(§2) Metabolites of each CYP coenzyme indicator drug generated through the reaction were analyzed using the Shimadzu Nexera XR system and TSQ vantage (Thermo). Kinetex C18 (2.1 mm×100 mm, 2.6 μm, particle size; Phenomenex, USA) was used in an HPLC column, and (A) distilled water containing 0.1% formic acid and (B) acetonitrile containing 0.1% formic acid were used as mobile phases, and the gradient program shown in Table 2 was applied.
(§3) The generated metabolites were quantified using an MRM (multiple reaction monitoring) quantification mode, and Xcalibur (version 1.6.1) was used for data analysis.

[2] = biological target: T2, CYP2D6 (Homo sapiens, UniProt P10635); assay: as above; assay type: in vitro ADME; details: compound 10 PM (so in the source); human liver microsomes 0.25 mg/mL; substrate dextromethorphan; 15 minutes
T2 construct: human liver microsomes (0.25 mg/mL); from tissue; host or cells: human liver microsomes
Experimental: as §1, §2, §3

[3] = biological target: T3, CYP2C19 (Homo sapiens, UniProt P33261); assay: as above; assay type: in vitro ADME; details: compound 10 PM (so in the source); human liver microsomes 0.25 mg/mL; substrate S-mephenytoin; 15 minutes
T3 construct: human liver microsomes (0.25 mg/mL); from tissue; host or cells: human liver microsomes
Experimental: as §1, §2, §3

[4] = biological target: T4, CYP1A2 (Homo sapiens, UniProt P05177); assay: as above; assay type: in vitro ADME; details: compound 10 PM (so in the source); human liver microsomes 0.25 mg/mL; substrate phenacetin; 15 minutes
T4 construct: human liver microsomes (0.25 mg/mL); from tissue; host or cells: human liver microsomes
T4 sequence (P05177 1-516): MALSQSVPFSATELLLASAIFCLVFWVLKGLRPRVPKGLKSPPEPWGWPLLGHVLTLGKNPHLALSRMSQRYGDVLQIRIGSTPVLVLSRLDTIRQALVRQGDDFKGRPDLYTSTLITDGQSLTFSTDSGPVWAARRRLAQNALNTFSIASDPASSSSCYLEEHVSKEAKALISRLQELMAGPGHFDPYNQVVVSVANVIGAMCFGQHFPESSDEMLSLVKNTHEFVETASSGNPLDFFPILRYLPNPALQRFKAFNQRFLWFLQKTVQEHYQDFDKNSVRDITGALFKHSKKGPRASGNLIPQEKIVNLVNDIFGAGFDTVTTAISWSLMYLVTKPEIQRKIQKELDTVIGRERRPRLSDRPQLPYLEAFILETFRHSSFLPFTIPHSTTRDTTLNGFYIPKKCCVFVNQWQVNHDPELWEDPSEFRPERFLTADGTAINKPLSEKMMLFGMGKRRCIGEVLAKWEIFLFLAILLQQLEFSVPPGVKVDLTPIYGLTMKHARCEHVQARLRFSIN
Experimental: as §1, §2, §3

[5] = Liver microsomal stability (dog); assay type: in vitro ADME; details: amount of substrate remaining; 1 μM, 0.25 mg/mL microsomes, 37° C., 30 minutes
Experimental: (§4) The liver microsomal stability of the compounds prepared according to Examples 1 to 171 was confirmed. Specifically, four kinds of liver microsomes (human, dog, rat, and mouse, each 0.25 mg/mL), a 0.1 M phosphate buffer solution (pH 7.4), and the compounds with a concentration of 1 μM were added, respectively. Then the mixture was cultured in advance at 37° C. for 5 minutes, and then further cultured at 37° C. for 30 minutes together with the addition of an NADPH generation system solution. Thereafter, a reaction was terminated by adding an acetonitrile solution containing an internal standard material (chloropropamide), centrifugal separation (14,000 rpm, 4° C.) was performed for 5 minutes, and then a supernatant was injected into an LC-MS/MS system. The substrate drugs were analyzed to evaluate the metabolic stability for 8 kinds of compounds.
(§5) The amount of substrate remaining through the reaction was analyzed using the Shimadzu Nexera XR system and TSQ vantage (Thermo). Kinetex XB-C18 (2.1 mm×100 mm, 2.6 μm, particle size; Phenomenex, USA) was used in an HPLC column, and (A) distilled water containing 0.1% formic acid and (B) acetonitrile containing 0.1% formic acid were used as mobile phases. Analyst software (version 1.6.3) and Xcalibur (version 1.6.1) were used for data analysis.

[6] = biological target: T5, tau protein (Homo sapiens, UniProt P10636); assay: Tau protein aggregation inhibition in tau-BiFC cell model; assay type: cell-based; details: tau-BiFC cells treated together with Forskolin, 48 hours
T5 construct: expressed in transfected cells
Procedure, shortened: (§6)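 Tau-BiFC cells co-treated 48 h with Forskolin ([…]) and compound at 0.03–30 μM. BiFC fluorescence quantified by imaging, IC50 by nonlinear regression; cytotoxicity as Hoechst-stained nuclei count relative to Forskolin-only wells (100% survival).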

[7] = tested on: Tau-BiFC cells; assay: Cytotoxicity (cell survival rate) in tau-BiFC cells; details: group treated with Forskolin alone = 100%
Procedure, shortened: as §6

[8] = biological target: T6, CYP3A4 (Homo sapiens, UniProt P08684); assay: Inhibition of CYP coenzyme activity in human liver microsomes; assay type: in vitro ADME; set-up: scale not given here; details: compound 10 PM (so in the source); human liver microsomes 0.25 mg/mL; substrate midazolam; 15 minutes
T6 construct: human liver microsomes (0.25 mg/mL); from tissue; host or cells: human liver microsomes
Experimental: as §1, §2, §3

[9] = Liver microsomal stability (rat); assay type: in vitro ADME; details: amount of substrate remaining; 1 μM, 0.25 mg/mL microsomes, 37° C., 30 minutes
Experimental: as §4, §5

[10] = Liver microsomal stability (mouse); assay type: in vitro ADME; details: amount of substrate remaining; 1 μM, 0.25 mg/mL microsomes, 37° C., 30 minutes
Experimental: as §4, §5

[11] = Liver microsomal stability (human); assay type: in vitro ADME; details: amount of substrate remaining; 1 μM, 0.25 mg/mL microsomes, 37° C., 30 minutes
Experimental: as §4, §5

T5 sequence (P10636 2-441 isoform P10636-8 limits assumed): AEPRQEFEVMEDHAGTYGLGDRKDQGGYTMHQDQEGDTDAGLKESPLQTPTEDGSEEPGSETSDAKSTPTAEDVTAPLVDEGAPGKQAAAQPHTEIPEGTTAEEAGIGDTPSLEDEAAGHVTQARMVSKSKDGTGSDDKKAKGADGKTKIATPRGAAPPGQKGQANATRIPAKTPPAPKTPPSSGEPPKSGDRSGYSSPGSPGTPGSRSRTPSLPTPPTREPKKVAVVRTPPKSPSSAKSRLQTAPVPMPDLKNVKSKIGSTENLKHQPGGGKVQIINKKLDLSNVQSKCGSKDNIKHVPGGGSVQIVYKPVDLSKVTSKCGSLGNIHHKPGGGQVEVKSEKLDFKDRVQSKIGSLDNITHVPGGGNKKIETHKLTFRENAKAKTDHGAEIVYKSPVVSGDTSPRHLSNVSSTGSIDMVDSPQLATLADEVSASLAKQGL
T6 sequence (P08684 whole entry): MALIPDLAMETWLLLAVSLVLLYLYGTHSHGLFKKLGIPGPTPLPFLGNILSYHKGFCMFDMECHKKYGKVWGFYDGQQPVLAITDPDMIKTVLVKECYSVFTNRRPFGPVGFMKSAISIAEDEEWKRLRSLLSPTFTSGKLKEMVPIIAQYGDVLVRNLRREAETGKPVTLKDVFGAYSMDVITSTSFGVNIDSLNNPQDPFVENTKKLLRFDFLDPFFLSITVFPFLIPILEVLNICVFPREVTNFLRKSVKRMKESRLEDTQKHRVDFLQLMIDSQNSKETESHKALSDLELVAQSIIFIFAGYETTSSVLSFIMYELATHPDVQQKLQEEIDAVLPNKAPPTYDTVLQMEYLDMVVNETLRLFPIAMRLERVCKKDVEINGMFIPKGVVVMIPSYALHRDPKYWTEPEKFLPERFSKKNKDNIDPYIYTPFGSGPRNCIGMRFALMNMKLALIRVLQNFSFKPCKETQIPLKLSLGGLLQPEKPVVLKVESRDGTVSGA
T1 sequence (P11712 whole entry): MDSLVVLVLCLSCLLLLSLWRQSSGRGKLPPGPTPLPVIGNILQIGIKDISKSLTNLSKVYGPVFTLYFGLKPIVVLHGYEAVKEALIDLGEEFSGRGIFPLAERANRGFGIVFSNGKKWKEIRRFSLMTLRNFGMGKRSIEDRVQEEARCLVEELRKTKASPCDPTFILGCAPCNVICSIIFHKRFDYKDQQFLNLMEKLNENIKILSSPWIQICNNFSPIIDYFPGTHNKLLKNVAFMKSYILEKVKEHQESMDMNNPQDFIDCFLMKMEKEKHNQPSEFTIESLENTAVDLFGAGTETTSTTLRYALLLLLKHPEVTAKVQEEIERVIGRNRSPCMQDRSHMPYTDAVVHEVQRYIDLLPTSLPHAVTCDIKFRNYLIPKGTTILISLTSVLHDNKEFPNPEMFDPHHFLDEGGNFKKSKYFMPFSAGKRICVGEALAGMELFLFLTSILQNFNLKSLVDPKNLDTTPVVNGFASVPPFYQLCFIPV
T2 sequence (P10635 whole entry): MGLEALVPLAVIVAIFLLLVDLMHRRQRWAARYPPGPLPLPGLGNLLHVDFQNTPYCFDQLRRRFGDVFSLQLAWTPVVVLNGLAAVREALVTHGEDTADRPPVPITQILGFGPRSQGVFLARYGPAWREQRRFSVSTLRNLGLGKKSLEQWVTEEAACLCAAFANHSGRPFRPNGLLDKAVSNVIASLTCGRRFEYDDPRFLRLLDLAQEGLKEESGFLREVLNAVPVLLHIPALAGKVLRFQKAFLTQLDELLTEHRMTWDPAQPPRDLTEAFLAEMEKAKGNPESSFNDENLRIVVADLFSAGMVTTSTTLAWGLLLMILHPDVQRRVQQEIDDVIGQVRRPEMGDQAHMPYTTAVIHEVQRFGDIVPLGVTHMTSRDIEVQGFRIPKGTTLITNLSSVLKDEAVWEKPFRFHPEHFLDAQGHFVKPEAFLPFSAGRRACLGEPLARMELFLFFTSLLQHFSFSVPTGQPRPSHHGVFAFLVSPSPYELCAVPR
T3 sequence (P33261 whole entry): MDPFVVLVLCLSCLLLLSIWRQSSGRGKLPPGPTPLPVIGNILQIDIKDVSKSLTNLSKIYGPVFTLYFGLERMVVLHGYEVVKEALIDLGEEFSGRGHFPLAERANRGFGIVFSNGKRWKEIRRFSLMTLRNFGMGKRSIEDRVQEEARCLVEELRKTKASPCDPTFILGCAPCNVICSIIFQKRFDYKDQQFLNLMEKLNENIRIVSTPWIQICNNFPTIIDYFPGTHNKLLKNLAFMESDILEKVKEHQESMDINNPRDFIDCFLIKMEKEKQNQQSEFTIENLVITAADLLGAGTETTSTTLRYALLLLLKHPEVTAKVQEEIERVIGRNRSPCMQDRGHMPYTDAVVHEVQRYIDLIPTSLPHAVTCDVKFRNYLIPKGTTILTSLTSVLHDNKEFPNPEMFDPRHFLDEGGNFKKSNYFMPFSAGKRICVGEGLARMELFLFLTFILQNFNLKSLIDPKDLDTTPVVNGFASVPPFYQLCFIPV

SMILES: N#CC(C#N)=NNc1cnc2[nH]ccc2c1 [Compound 72, (1H-pyrrolo[2,3-b]pyridin-5-yl)carbonohydrazonoyl dicyanide]
- inhibition effects of CYP coenzyme activity, CYP2C9 [1]: 88.7
- inhibition effects of CYP coenzyme activity, CYP2D6 [2]: 98.9
- inhibition effects of CYP coenzyme activity, CYP2C19 [3]: 97.8
- inhibition effects of CYP coenzyme activity, CYP1A2 [4]: 85.8
- liver microsomal stability, Dog (%) [5]: 84.8%
- IC50 [6]: 35 nM
- Cell survival rate (% @ 10 μM) [7]: 89.5%
- inhibition effects of CYP coenzyme activity, CYP3A4 [8]: >100
- liver microsomal stability, Rat (%) [9]: 72.8%
- liver microsomal stability, Mouse (%) [10]: 58.6%
- liver microsomal stability, Human (%) [11]: 86.3%

SMILES: N#CC(C#N)=NNc1cnc2[nH]cc(Cl)c2c1 [Compound 83, (3-chloro-1H-pyrrolo[2,3-b]pyridin-5-yl)carbonohydrazonoyl dicyanide]
- inhibition effects of CYP coenzyme activity, CYP2C9 [1]: 51
- inhibition effects of CYP coenzyme activity, CYP2D6 [2]: 91.1
- inhibition effects of CYP coenzyme activity, CYP2C19 [3]: 96.4
- inhibition effects of CYP coenzyme activity, CYP1A2 [4]: 47.7
- liver microsomal stability, Dog (%) [5]: 31.9%
- IC50 [6]: 300 nM
- Cell survival rate (% @ 10 μM) [7]: 98%
- inhibition effects of CYP coenzyme activity, CYP3A4 [8]: 86.4
- liver microsomal stability, Rat (%) [9]: 62.2%
- liver microsomal stability, Mouse (%) [10]: 11%
- liver microsomal stability, Human (%) [11]: 64.1%

SMILES: N#CC(C#N)=NNc1ccc2nc(NC(=O)c3ccccc3O)sc2c1 [Compound 87, (2-(2-hydroxybenzamido)benzo[d]thiazol-6-yl)carbonohydrazonoyl dicyanide]
- inhibition effects of CYP coenzyme activity, CYP2C9 [1]: 53.5
- inhibition effects of CYP coenzyme activity, CYP2D6 [2]: 83.6
- inhibition effects of CYP coenzyme activity, CYP2C19 [3]: 86.4
- inhibition effects of CYP coenzyme activity, CYP1A2 [4]: 77
- liver microsomal stability, Dog (%) [5]: 80.6%
- IC50 [6]: 400 nM
- Cell survival rate (% @ 10 μM) [7]: 75.3%
- inhibition effects of CYP coenzyme activity, CYP3A4 [8]: 62.7
- liver microsomal stability, Rat (%) [9]: 73.9%
- liver microsomal stability, Mouse (%) [10]: 83.1%
- liver microsomal stability, Human (%) [11]: 82.1%

SMILES: N#CC(C#N)=NNc1ccc2nc(NC(=O)c3cnccn3)sc2c1 [Compound 92, (2-(pyrazine-2-carboxamido)benzo[d]thiazol-6-yl)carbonohydrazonoyl dicyanide]
- inhibition effects of CYP coenzyme activity, CYP2C9 [1]: 46.8
- inhibition effects of CYP coenzyme activity, CYP2D6 [2]: 99.1
- inhibition effects of CYP coenzyme activity, CYP2C19 [3]: 90.5
- inhibition effects of CYP coenzyme activity, CYP1A2 [4]: 64.1
- liver microsomal stability, Dog (%) [5]: 74.7%
- IC50 [6]: 240 nM
- Cell survival rate (% @ 10 μM) [7]: 119.5%
- inhibition effects of CYP coenzyme activity, CYP3A4 [8]: 85.5
- liver microsomal stability, Rat (%) [9]: 72.7%
- liver microsomal stability, Mouse (%) [10]: 51.9%
- liver microsomal stability, Human (%) [11]: 74.6%

SMILES: Cc1cncc(-c2nc3ccc(NN=C(C#N)C#N)cc3s2)c1 [Compound 110, (2-(5-methylpyridin-3-yl)benzo[d]thiazol-6-yl)carbonohydrazonoyl dicyanide]
- inhibition effects of CYP coenzyme activity, CYP2C9 [1]: 60.2
- inhibition effects of CYP coenzyme activity, CYP2D6 [2]: 70.8
- inhibition effects of CYP coenzyme activity, CYP2C19 [3]: 51.3
- inhibition effects of CYP coenzyme activity, CYP1A2 [4]: 55
- liver microsomal stability, Dog (%) [5]: 60.2%
- IC50 [6]: 760 nM
- Cell survival rate (% @ 10 μM) [7]: 74.6%
- inhibition effects of CYP coenzyme activity, CYP3A4 [8]: 55
- liver microsomal stability, Rat (%) [9]: 51.3%
- liver microsomal stability, Mouse (%) [10]: 70.8%
- liver microsomal stability, Human (%) [11]: 55%

SMILES: CN(C)c1ccc(-c2ccc(NN=C(C#N)C#N)cc2)cc1 [Compound 151, (4′-(dimethylamino)biphenyl-4-yl)carbohydrazonoyl dicyanide]
- inhibition effects of CYP coenzyme activity, CYP2C9 [1]: 83.6
- inhibition effects of CYP coenzyme activity, CYP2D6 [2]: 94.6
- inhibition effects of CYP coenzyme activity, CYP2C19 [3]: 85.2
- inhibition effects of CYP coenzyme activity, CYP1A2 [4]: 94.4
- liver microsomal stability, Dog (%) [5]: 83.6%
- IC50 [6]: 650 nM
- Cell survival rate (% @ 10 μM) [7]: 69.5%
- inhibition effects of CYP coenzyme activity, CYP3A4 [8]: 94.4
- liver microsomal stability, Rat (%) [9]: 85.2%
- liver microsomal stability, Mouse (%) [10]: 94.6%
- liver microsomal stability, Human (%) [11]: 94.4%
